From PubChem BioAssay AID2305 (GlaxoSmithKline (GSK), 2010)

The compounds below were run on P. falciparum 3D7 growth, pLDH absorbance (assay: P. falciparum 3D7 growth inhibition, dose response, strain 3D7 (AID 2305)).

Row | Structure (SMILES) | IC50
1 | N#Cc1cccc(C(=O)Nc2ccc(-c3cccc(CN4CCCC4)c3)cc2)c1 | 710 nM
2 | COc1ccc(CN(C)CCCOc2ccc(NC(=O)c3cccc4c(=O)c5cccc(F)c5[nH]c34)cc2)cc1OC | 640 nM
3 | COc1cc2ccccc2cc1OCCCN1CCN(CC(c2ccc(F)cc2)N2CCN(C(C)C)CC2)CC1 (stereo unspecified) | 750 nM
4 | N#Cc1ccc(N2CCN(Cc3cccc(-c4ccc(-c5nc6ccccc6[nH]5)cc4)c3)CC2)nc1 | 1240 nM
5 | O=C(NCCc1ccc(Cl)c(Cl)c1)[C@@H]1CCCN1C(=O)c1ccc(O)c(-c2ccc(Cl)c(Cl)c2)c1 | 550 nM
6 | CCCN(CCC)C(=O)c1cc(C(=O)N[C@@H](Cc2ccccc2)[C@H](O)CNC2CC2)cc(N2CCCCS2(=O)=O)c1 | 160 nM
7 | COc1cc2c(cc1C(F)(F)F)N(C(=O)Nc1cc(F)cc(-c3cccnn3)c1)CC2 | 270 nM
8 | CCOc1ccc2nc(C)cc(NN=Cc3ccccc3F)c2c1 | 740 nM
9 | N#Cc1ccc(-c2ccc(C(=O)NCCCCN3CC=C(c4ccc5c(c4OCC4CC4)CCCC5)CC3)cc2)cc1 | 620 nM
10 | Cc1ccc(CN2CCC(Oc3cccc(NC(=O)c4ccc(C(F)(F)F)cc4)c3)CC2)cc1 | 1020 nM
11 | CC(=O)Nc1ccc(S(=O)(=O)NC2=NC(C)(C)N(OCc3ccc(Cl)c(Cl)c3)C(N)=N2)cc1 | 30 nM
12 | COCCn1c(-c2nc(-c3ccc(F)cc3)cnc2N)nc2ccccc21 | 870 nM
13 | FC(F)(F)c1ccc2nc(-c3ccc(-c4cccc(CNCC5CCCO5)c4)cc3)[nH]c2c1 (stereo unspecified) | 250 nM
14 | NC1CCN(Cc2ccc(-c3cccc(-c4nc5ccccc5[nH]4)c3)cc2)C1 (stereo unspecified) | 850 nM
15 | OCCOCn1cnc2cnc(N[C@H]3OC[C@H](O)[C@@H](O)[C@@H]3O)nc21 | 1640 nM
16 | N#Cc1ccc(CN2CCCN(Cc3cccc(NC(=O)c4cc5ccccc5s4)c3)CC2)cc1 | 910 nM
17 | CCn1c(C)cc(C=C2SC(=Nc3ccccc3)NC2=O)c1C | 680 nM
18 | CC(C)(C)c1cc(NC2CC2)nc(-c2ccccn2)n1 | 720 nM
19 | Cc1ccc(-c2cncc(-c3cc(NC4CCN(Cc5ccccc5)CC4)nc(-c4ccccc4)n3)c2)cc1 | 720 nM
20 | O=C(Nc1ccc2nc(-c3ccccc3)[nH]c2c1)c1cc(-c2ccc3c(c2)OCCO3)n[nH]1 | 770 nM
21 | CCC(C)CN1CCC(N(C)c2cc(NC(=O)c3cccc(C)c3)ccn2)CC1 (stereo unspecified) | 940 nM
22 | O=C(Nc1ccc(Cl)c(Cl)c1)N1CCc2cc3nccc(N4CCN5CCC[C@H]5C4)c3cc21 | 630 nM
23 | CC(CN1CCN(C)CC1)C(=O)Nc1ccc(-c2cccc(-c3nc4ccc(C(F)(F)F)cc4[nH]3)c2)cc1 (stereo unspecified) | 400 nM
24 | COc1ccc(-c2nccc(NC(N)=NCc3ccccc3)n2)cc1 | 670 nM

Row | Structure (SMILES) | IC50
25 | CNC(=O)c1ccccc1Nc1cc(Nc2cc(OC)ccn2)ncc1Cl | 930 nM
26 | Cc1[nH]nc2ccc(-c3cc(OC[C@@H](N)Cc4ccccc4)cnc3-c3cc4ccccc4s3)cc12 | 810 nM
27 | O=C1NC(=O)C(c2cccc(NC(=O)c3ccncc3)c2)=C1c1ccccc1 | 740 nM
28 | COc1cc2cc(Cc3cnc(N)nc3N)ccc2c(OC)c1OC | 240 nM
29 | COc1cc(F)c2ncc(Cl)c([C@H](O)CN3CCC(NCc4ccc5c(n4)NC(=O)CO5)CC3)c2c1 | 160 nM
30 | S=C(NCCCCCN1CCC(c2c[nH]c3ccccc23)CC1)Nc1ccc(Cl)c(Cl)c1 | 710 nM
31 | CN(c1ccc(F)cc1)S(=O)(=O)c1ccc(Cl)c(C(=O)Nc2cccc(C#N)c2)c1 | 700 nM
32 | COc1ccc2ncc(F)c([C@@H](O)CN3CCC(NCc4ccc5c(c4)NCCS5)CC3)c2n1 | 500 nM
33 | CC[C@H](C)[C@@H](C(=O)N1CCOCC1)N1CC[C@H](NS(=O)(=O)CC(C)(C)c2ccc(Cl)cc2)C1=O | 550 nM
34 | C[C@H](Cc1ccc(S(=O)(=O)c2ccc(C[C@@H](C)NC[C@H](O)c3cccc(Cl)c3)cc2)cc1)NC[C@H](O)c1cccc(Cl)c1 | 260 nM
35 | CC(C)(CNC(=O)[C@@H]1CCCN(CCOc2ccc(F)c(F)c2)C1)c1nc(-c2ccc(Cl)c(O)c2)c(-c2ccncc2)[nH]1 | 720 nM
36 | COC(=O)C(C)NCC(=O)c1ccccc1 (stereo unspecified) | 120 nM
37 | COc1ccc(-c2nnc(Sc3ccc(C#N)c([N+](=O)[O-])c3)n2CCC(C)C)cc1 | 1110 nM
38 | NC1=NC(c2ccccc2)(c2ccccc2)C(=O)N1Cc1ccccc1Br | 860 nM
39 | CC(C)(C)c1ccc(CN2CCCCC(NC(=O)c3cc(-c4ccccc4F)cs3)C2)cc1 (stereo unspecified) | 270 nM
40 | COc1cccc2cc(C(=O)N[C@@H](CC(C)C)C(=O)NC3CC[C@@H](C)N(C(=O)Nc4ccncc4)CC3=O)oc12 (stereo partly specified) | 290 nM
41 | CC(O)C1CCCCN1C(=O)c1cccc(-c2ccc(-c3nc4ccc(F)cc4[nH]3)cc2)c1 (stereo unspecified) | 740 nM
42 | CCCOc1cccc(C(=O)N[C@@H](Cc2ccccc2)[C@H](O)CNCc2cccc(OC)c2)c1 | 740 nM
43 | COc1ccccc1-c1csc(C(=O)NCC2CCN(Cc3ccc(C(C)(C)C)cc3)C2)c1 (stereo unspecified) | 1110 nM
44 | COc1cc(F)c2nccc([C@@H](O)CN3CC[C@H](NCc4ccc5c(n4)NC(=O)CS5)[C@H](F)C3)c2c1 | 1170 nM
45 | Cc1cc(Nc2cccc(Cl)c2)nc2ccc(NC(=O)c3ccc(=O)[nH]c3)cc12 | 1000 nM
46 | O=C1COC2(CN1C1CCN(Cc3ccc(O)cc3Cl)C1)c1ccccc1-c1ccccc12 (stereo unspecified) | 1330 nM
47 | CN1CCC(C(=O)Nc2ccc(-c3ccc(-c4nc5ccccc5[nH]4)s3)cc2)CC1 | 820 nM
48 | O=C(Nc1ccc(N2CCCN(Cc3cccc(F)c3)CC2)cc1)c1cccs1 | 550 nM

Row | Structure (SMILES) | IC50
49 | Nc1cccc(CNCc2ccc(-c3cccc(-c4nc5ccc(C(F)(F)F)cc5[nH]4)c3)cc2)c1 | 170 nM
50 | Cc1ccc2nc(C)cc(NN=Cc3cccc(Cl)c3)c2c1 | 740 nM
51 | Nc1nnc(-c2ccc(Cl)c(Br)c2)c(N)n1 | 1040 nM
52 | COc1ccc(Nc2nc(NCc3ccco3)c3ccccc3n2)cc1 | 740 nM
53 | Cc1cccc(Nc2nc(N)c3ccccc3n2)c1 | 570 nM
54 | Cc1ccc(Nc2nc3cc(N(C)c4ccnc(Nc5cccc(CS(C)(=O)=O)c5)n4)ccc3o2)cc1 | 970 nM
55 | CC(CN=C(N)c1cccc(C(N)=NCC(C)Oc2cccc(C3CCCCC3)c2)n1)Oc1cccc(C2CCCCC2)c1 (stereo unspecified) | 920 nM
56 | COc1cccc(C2=CC(C)(C)Oc3cc(OCCN(C)C)ccc32)c1 | 790 nM
57 | COc1cc2nc(NCCn3nc(C)cc3C)nc(NCCc3ccccc3)c2cc1OC | 440 nM
58 | Fc1ccc2c(NN=Cc3ccc(Cl)cc3)ccnc2c1 | 750 nM
59 | Cc1ccc(C)c(Sc2ccc(NC(=O)CN3CCN(C(=O)c4ccco4)CC3)cc2)c1 | 720 nM
60 | COc1ccc2cc(C(C)NC3CCN(c4cccc(NC(=O)c5ccncc5)c4)CC3)ccc2c1 (stereo unspecified) | 1550 nM
61 | CCCCNC[C@@H](O)[C@H](Cc1ccccc1)NC(=O)c1cc2c3c(c1)c(CC)cn3CCS(=O)(=O)N2C | 200 nM
62 | O=C(NC(c1ccccc1)c1ccccc1)C(c1cc2ccccc2o1)N1CCN(C(c2ccccc2)c2ccccc2)CC1 (stereo unspecified) | 680 nM
63 | Cc1nnc(-c2ccc3ccccc3c2)c2cn(-c3cccc([N+](=O)[O-])c3)nc12 | 990 nM
64 | O=C(/C=C/c1ccc(Cl)c(Cl)c1)NC1CCC(CN2CCC(c3nc4ncccc4[nH]3)CC2)CC1 (stereo unspecified) | 1230 nM
65 | CCN1CCN(c2cc(C)c3cc(NC(=O)c4ccc(N(CC)CC)cc4)ccc3n2)CC1 | 960 nM
66 | COc1ccc(CNC2Cc3ccccc3C2)cc1-c1ccc(S(=O)(=O)NCCN2CCCC2)c(F)c1 | 720 nM
67 | CCN1C(=O)C(CC(=O)Nc2cccc(Cl)c2)N(Cc2ccc(OC)c(OC)c2)C1=S (stereo unspecified) | 610 nM
68 | COc1ccc2nccc(NN=CC=Cc3ccccc3)c2c1 | 740 nM
69 | CC1CN(Cc2ccc(-c3ccc(-c4nc5ccc(F)cc5[nH]4)cc3)cc2)CC(C)O1 (stereo unspecified) | 560 nM
70 | O=C(N1CCN(c2ccc(C(F)(F)F)cc2[N+](=O)[O-])CC1)C(Cl)(Cl)Cl | 710 nM
71 | Cc1cc(N[C@@H](Cc2ccccc2)C(=O)NCc2cccc(F)c2)nc(NCCOc2ccccc2)n1 | 790 nM
72 | Cc1cc(NN=CC=Cc2ccccc2)c2ccc(F)cc2n1 | 590 nM

Row | Structure (SMILES) | IC50
73 | CC(C)(C)c1ccc(CN2CCC(CNC(=O)c3cc(-c4ccccc4C(F)(F)F)cs3)C2)cc1 (stereo unspecified) | 1240 nM
74 | Cc1cc(N2CCCCC2)nc2ccc(NC(=O)c3cccc([N+](=O)[O-])c3)cc12 | 380 nM
75 | CC1(C)N=C(N)N=C(N)N1CCc1ccccc1 | 50 nM
76 | Cc1nc(C)c(CC(=O)Nc2cccc(-c3cccc(-c4nc5c(C)cccc5[nH]4)c3)c2)s1 | 750 nM
77 | COc1ccc2nccc([C@@H](O)CN3CCC(NCCc4c[nH]c5ccccc45)CC3)c2c1 | 210 nM
78 | COc1ccc2nccc([C@@H](O)CN3CCC(NCc4cc5ccc(Cl)cc5[nH]4)CC3)c2c1 | 120 nM
79 | COc1ccc(C(C(=O)NC2CCN(C[C@H](O)c3ccnc4ccc(OC)cc34)CC2)N2CCN(c3ccc([N+](=O)[O-])cc3)CC2)cc1 (stereo partly specified) | 230 nM
80 | CCN(CC)CCN(Cc1ccc(-c2ccc(C(F)(F)F)cc2)cc1)C(=O)Cn1c(CCc2cc(F)c(F)c(F)c2)nc(=O)c2ccccc21 | 830 nM
81 | CCOC(=O)c1ccc(N2CCN(c3cc(Cl)ccc3C)CC2)c(NC(=O)Nc2ccc(Cl)c(Cl)c2)c1 | 580 nM
82 | O=C(NCc1ccccc1)c1ccc(C(=O)NCC2CNCCO2)cc1 (stereo unspecified) | 1140 nM
83 | Fc1ccc(NC(=S)NCCc2ccccc2)cc1 | 780 nM
84 | Cc1cccc2[nH]c(-c3ccc(-c4cccc(NC(=O)NCc5cccc(F)c5)c4)s3)nc12 | 760 nM
85 | COc1ccc(C2N=C(N)N=C(N)N2OCc2ccccc2)cc1OC (stereo unspecified) | 130 nM
86 | O=[N+]([O-])c1ccc2ncnc(Nc3ccc(F)c(Cl)c3)c2c1 | 710 nM
87 | CCCC[C@@H](C(=O)NCc1ccccc1C(F)(F)F)N1C(=O)CCC1C(=O)Nc1ccc([N+](=O)[O-])cc1 (stereo partly specified) | 850 nM
88 | COc1ccc2ccccc2c1CCCCN1CCN(CC(c2ccc(F)cc2)N2CCC(N3CCCC3)CC2)CC1 (stereo unspecified) | 620 nM
89 | CCOc1c(Br)cc(Cl)cc1CNCCCNc1nc2ccccc2[nH]1 | 690 nM
90 | c1ccc(C(c2ccccc2)N2CCN(C(c3cccnc3)c3nnnn3C3CCCC3)CC2)cc1 (stereo unspecified) | 1080 nM
91 | CCCN1CCN(CCNC(=O)c2cccc(Nc3nccc(Nc4ccc(Oc5ccccc5)cc4)n3)c2)CC1 | 240 nM
92 | CCCc1cc(NCC)nc(Nc2ccc(F)cc2)n1 | 1030 nM
93 | COc1cc2nc(NCCCOC(C)C)n3nc(-c4ccccc4)nc3c2cc1OC | 200 nM
94 | CCc1cc2c(=O)c(-c3nc(C)cs3)c(N)oc2c(CN2CCCCC2)c1O | 660 nM
95 | Cc1cc(N)ncc1-c1ccc(NC(=O)Nc2cc(C(F)(F)F)ccc2F)cc1 | 700 nM
96 | CS(=O)(=O)CCNCc1nc(-c2ccc3c(Nc4ccc(Cl)cc4F)ccnc3c2)cs1 | 1080 nM
